This is an account of results in patent US11918592B2, “Inhibitors of cyclin dependent kinase 7 (CDK7)” (Syros Pharmaceuticals, Inc., priority 2018, dated 2024).

Molecules are shown by their SMILES.

Test [1] deals with MB453 cells. Briefly: Inhibition of cell proliferation, CyQUANT Direct, MB453. It is filed as cell-based, human. Particulars: Homo sapiens; MB453 triple negative breast cancer cells, 72-hour; read-out: MB 453 proliferation calculated IC50. On the procedure:
(§1) HCC70 and MB453 cells are cell lines derived from human triple negative breast cancer. COV318 and COV504 cells are cell lines derived from human ovarian cancer. Representative compounds of the invention were tested at different concentrations (from 4 μM to 126.4 pM; 0.5 log serial dilutions) for their ability to inhibit the proliferation of each of these cell lines. Known CDK inhibitors dinaciclib or N-((1S,3R)-3-((5-chloro-4-(1H-indol-3-yl) pyrimidin-2-yl)amino)cyclohexyl)-5-((E)-4-(dimethylamino)but-2-enamido)picolinamide and triptolide were used as positive controls. Cells were seeded at approximately 2,000 cells/well and grown in ATCC-formulated RPMI-1640 Medium (ATCC 30-2001)+10% FBS. The cells were cultured at 37° C. in a humidified chamber in the presence of 5% CO2. Proliferation assays were conducted over a 72-hour time period. CyQUANT® Direct Cell Proliferation Assay (Life Technologies, Chicago, IL USA) was used to assess the anti-proliferative effects of the compounds following manufacturer's directions and utilizing the reagents supplied with the CyQUANT® Direct Cell kit.

In test [2] the test system is COV318 cells. Briefly: Inhibition of cell proliferation, CyQUANT Direct, COV318. The following applies: Homo sapiens; COV318 ovarian cancer cells, 72-hour; read-out: COV 318 proliferation calculated IC50. It is filed as cell-based. On the procedure: as §1
In test [3] the target is CDK2/Cyclin E1 complex (Homo sapiens, UniProt P24941). Briefly: CDK2 kinase inhibition assay (Caliper/LabChip EZ Reader).
Protocol: (§2) Compounds of the invention were assayed for inhibition of CDK7, CDK9, CDK12, and CDK2 activity at Biortus Biosciences (Jiangyin, Jiangsu Province, P.R. of China) using kinase assays for each CDK developed with a Caliper/LabChip EZ Reader (Perkin Elmer, Waltham, MA).
(§3) Furthermore, the CDK9 inhibition assay used CDK9/Cyclin T1 complex (8 nM) and “5-FAM-CDK9tide” peptide substrate (2 μM, synthesized fluorophore-labeled peptide with the following sequence: 5-FAM-GSRTPMY-NH2 (SEQ ID NO:2) where 5-FAM is defined above and NH2 signifies a C-terminal amide) with 10 mM MgCl2 in the buffer composition listed above. The CDK12 inhibition assay used CDK12 (aa686-1082)/Cyclin K complex (50 nM) and “5-FAM-CDK9tide” (2 μM) as defined above, with 2 mM MgCl2 in the buffer composition above. Additionally, the CDK2 inhibition assay used CDK2/Cyclin E1 complex (0.5 nM) and “5-FAM-CDK7tide” (2 μM) as defined above, with 2 mM MgCl2 in the buffer composition listed above.
(§4) The incubation period at 27° C. for each CDK inhibition assay was chosen such that the fraction of phosphorylated peptide product produced in each assay, relative to the total peptide concentration, was approximately 20% (±5%) for the uninhibited kinase (35 min. for CDK7, 35 min. for CDK2, 3 hr. for CDK12, 15 min. for CDK9).
Test [4] deals with CDK9/Cyclin T1 complex (Homo sapiens, UniProt P50750). Briefly: CDK9 kinase inhibition assay (Caliper/LabChip EZ Reader).
CDK9/Cyclin T1 complex, sequence (P50750 whole entry): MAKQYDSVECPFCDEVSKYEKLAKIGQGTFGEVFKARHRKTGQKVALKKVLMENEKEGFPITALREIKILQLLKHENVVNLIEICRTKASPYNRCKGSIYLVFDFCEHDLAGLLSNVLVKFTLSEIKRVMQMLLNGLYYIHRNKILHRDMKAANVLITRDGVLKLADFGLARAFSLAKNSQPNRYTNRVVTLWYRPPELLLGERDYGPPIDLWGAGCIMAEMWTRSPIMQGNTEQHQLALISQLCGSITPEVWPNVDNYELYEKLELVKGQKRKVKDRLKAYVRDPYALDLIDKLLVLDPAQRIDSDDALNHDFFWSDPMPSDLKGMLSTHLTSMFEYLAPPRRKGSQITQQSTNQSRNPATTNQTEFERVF
CDK9/Cyclin T1 complex, sequence (O60563 whole entry partner): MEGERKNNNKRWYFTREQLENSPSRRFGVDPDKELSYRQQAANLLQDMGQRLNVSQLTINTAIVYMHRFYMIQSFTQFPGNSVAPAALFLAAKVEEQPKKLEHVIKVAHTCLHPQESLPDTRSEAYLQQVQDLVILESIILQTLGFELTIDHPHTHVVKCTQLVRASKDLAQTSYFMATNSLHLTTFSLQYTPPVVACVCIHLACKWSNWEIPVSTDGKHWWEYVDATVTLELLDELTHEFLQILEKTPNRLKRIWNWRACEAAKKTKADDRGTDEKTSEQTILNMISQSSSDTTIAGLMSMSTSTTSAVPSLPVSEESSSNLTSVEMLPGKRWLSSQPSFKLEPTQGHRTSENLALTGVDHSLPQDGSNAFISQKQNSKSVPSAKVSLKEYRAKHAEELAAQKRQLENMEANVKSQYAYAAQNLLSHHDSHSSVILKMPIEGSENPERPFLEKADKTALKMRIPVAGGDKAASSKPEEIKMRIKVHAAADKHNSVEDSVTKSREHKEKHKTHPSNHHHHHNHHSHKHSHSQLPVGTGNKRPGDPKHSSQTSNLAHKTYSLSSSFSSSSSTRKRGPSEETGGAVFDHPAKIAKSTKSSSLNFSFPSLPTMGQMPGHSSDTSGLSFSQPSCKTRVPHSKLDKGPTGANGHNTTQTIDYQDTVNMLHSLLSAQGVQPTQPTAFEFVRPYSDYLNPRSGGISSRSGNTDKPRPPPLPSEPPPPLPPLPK
Test [5] addresses CDK7/Cyclin H/MAT1 complex (Homo sapiens, UniProt P50613). Briefly: CDK7 kinase inhibition assay (Caliper/LabChip EZ Reader).
Protocol: as §2, §3, §4
Test [6] relates to COV504 cells. Put plainly: Inhibition of cell proliferation, CyQUANT Direct, COV504. It is filed as cell-based. Particulars: Homo sapiens; COV504 ovarian cancer cells, 72-hour; read-out: COV 504 proliferation calculated IC50. On the procedure: as §1
Test [7] relates to HCC70 cells. Put plainly: Inhibition of cell proliferation, CyQUANT Direct, HCC70. In kind it is cell-based, human. The following applies: Homo sapiens; HCC70 triple negative breast cancer cells, 72-hour; read-out: HCC 70 proliferation calculated IC50. On the procedure: as §1
Test [8] deals with CDK12 (aa686-1082)/Cyclin K complex (Homo sapiens, UniProt Q9NYV4). Put plainly: CDK12 kinase inhibition assay (Caliper/LabChip EZ Reader).
CDK12 (aa686-1082)/Cyclin K complex, sequence (Q9NYV4 686-1082): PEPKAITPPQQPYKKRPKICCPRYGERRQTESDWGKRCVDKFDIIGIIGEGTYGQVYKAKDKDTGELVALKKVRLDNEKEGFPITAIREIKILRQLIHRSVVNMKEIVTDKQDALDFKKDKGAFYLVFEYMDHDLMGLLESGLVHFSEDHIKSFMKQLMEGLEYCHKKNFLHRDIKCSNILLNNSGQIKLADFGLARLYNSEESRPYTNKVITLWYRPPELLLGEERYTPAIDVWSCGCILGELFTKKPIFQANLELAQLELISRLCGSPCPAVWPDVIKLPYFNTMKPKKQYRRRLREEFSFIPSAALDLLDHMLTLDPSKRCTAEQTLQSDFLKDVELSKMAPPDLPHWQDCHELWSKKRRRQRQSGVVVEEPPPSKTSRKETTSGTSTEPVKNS
CDK12 (aa686-1082)/Cyclin K complex, sequence (O75909 whole entry partner, the tested form may be a part): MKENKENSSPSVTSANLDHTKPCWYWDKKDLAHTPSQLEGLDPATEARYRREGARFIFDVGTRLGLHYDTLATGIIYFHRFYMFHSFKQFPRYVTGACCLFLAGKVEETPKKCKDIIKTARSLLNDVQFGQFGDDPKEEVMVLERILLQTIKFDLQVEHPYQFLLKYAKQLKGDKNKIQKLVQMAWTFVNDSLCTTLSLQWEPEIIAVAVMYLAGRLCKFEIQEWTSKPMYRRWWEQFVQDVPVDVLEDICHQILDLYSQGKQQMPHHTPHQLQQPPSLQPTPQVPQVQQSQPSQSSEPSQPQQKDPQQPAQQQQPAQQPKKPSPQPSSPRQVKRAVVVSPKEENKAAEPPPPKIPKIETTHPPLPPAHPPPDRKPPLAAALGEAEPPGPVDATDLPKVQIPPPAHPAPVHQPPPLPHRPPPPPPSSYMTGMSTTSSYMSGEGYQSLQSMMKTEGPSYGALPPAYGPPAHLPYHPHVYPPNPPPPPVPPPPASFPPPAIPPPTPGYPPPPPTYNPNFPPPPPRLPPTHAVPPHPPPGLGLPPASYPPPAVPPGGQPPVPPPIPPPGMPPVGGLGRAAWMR
Protocol: as §2, §3, §4

CDK7/Cyclin H/MAT1 complex, sequence (P50613 whole entry): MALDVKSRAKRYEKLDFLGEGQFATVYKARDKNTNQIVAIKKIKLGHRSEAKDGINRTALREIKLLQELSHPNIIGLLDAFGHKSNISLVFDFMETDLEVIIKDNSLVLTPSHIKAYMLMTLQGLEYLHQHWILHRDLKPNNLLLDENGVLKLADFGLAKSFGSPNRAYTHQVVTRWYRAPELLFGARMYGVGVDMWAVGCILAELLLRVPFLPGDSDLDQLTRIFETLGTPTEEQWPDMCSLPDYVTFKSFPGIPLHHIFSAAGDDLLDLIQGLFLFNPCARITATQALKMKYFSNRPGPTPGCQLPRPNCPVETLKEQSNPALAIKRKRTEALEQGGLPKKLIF
CDK7/Cyclin H/MAT1 complex, sequence (P51946 whole entry partner): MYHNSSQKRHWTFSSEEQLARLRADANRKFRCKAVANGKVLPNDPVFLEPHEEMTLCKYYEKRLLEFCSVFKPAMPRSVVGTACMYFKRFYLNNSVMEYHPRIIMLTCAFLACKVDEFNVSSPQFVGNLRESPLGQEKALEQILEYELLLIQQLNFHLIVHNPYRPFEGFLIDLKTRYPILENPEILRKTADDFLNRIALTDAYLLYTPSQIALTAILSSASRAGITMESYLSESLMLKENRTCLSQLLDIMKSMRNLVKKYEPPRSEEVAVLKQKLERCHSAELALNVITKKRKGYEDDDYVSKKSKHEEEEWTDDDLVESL
CDK7/Cyclin H/MAT1 complex, sequence (P51948 whole entry partner): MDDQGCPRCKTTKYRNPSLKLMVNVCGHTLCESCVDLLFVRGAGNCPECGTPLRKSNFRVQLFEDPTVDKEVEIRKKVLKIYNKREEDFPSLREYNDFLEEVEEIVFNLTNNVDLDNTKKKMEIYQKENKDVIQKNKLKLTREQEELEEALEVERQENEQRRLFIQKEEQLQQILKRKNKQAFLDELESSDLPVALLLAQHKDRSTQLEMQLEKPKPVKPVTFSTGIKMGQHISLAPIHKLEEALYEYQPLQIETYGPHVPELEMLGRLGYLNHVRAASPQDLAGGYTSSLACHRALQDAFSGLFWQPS

As to `C[C@H]1C[C@H](Nc2ncc(C(F)(F)F)c(-c3c[nH]c4cc(C#N)ccc34)n2)CN1` [Compound 104], the IC50 in test [1] was 100 to 500 nM; in test [2], above 2000 nM; in test [3], above 500 nM; in test [4] it was above 500 nM; in test [5], 30 to 100 nM; in test [6], 100 to 500 nM. Besides, the IC50 in test [7] was 500 to 2000 nM; in test [8], above 500 nM.
`CC(C)N1CC[C@H](Nc2ncc(C(F)(F)F)c(-c3c[nH]c4cc(C#N)ccc34)n2)C1` [Compound 105]: the IC50 is above 2000 nM in test [1]; above 2000 nM in test [2]; above 500 nM in test [3]; above 500 nM in test [4]; above 500 nM in test [5]; above 2000 nM in test [6]. Also, the IC50 in test [7] is above 2000 nM; in test [8] it was above 500 nM.
Turning to `C[C@@H]1C[C@H](Nc2ncc(C(F)(F)F)c(-c3c[nH]c4cc(C#N)ccc34)n2)CN1` [Compound 108], the IC50 in test [1] was 500 to 2000 nM; in test [2], above 2000 nM; in test [3], above 500 nM; in test [4], above 500 nM; in test [5] it was 30 to 100 nM; in test [6] it was 500 to 2000 nM. In addition, the values for the IC50 in test [7] and in test [8] were 500 to 2000 nM and above 500 nM, respectively.
As for `CN1CC[C@H](Nc2ncc(C(F)(F)F)c(-c3c[nH]c4cc(C#N)ccc34)n2)C1` [Compound 109], the IC50 in test [1] was 500 to 2000 nM; in test [2] it was 500 to 2000 nM; in test [3] it was above 500 nM; in test [4] it was above 500 nM; in test [5], 100 to 500 nM; in test [6], 500 to 2000 nM. Further, the IC50 in test [7] is 500 to 2000 nM; in test [8], above 500 nM.
`N#Cc1ccc2c(-c3nc(N[C@H]4CN[C@H](CO)C4)ncc3C(F)(F)F)c[nH]c2c1` [Compound 112]: the IC50 in test [1] was 500 to 2000 nM; in test [2] it was above 2000 nM; in test [3] it was above 500 nM; in test [4] it was above 500 nM; in test [5], 100 to 500 nM; in test [6], above 2000 nM. The figures for the IC50 in test [7] and in test [8] were above 2000 nM and above 500 nM, respectively.
As for `N#Cc1ccc2c(-c3nc(N[C@H]4C[C@H]5CC[C@@H]4N5)ncc3C(F)(F)F)c[nH]c2c1` [Compound 114, 3-[2-[[(1S,2S,4R)-7-azabicyclo[2.2.1]heptan-3-yl]-amino]-5-(trifluoromethyl)pyrimidin-4-yl]-1H-indole-6-carbonitrile], the IC50 was below 100 nM in test [1]; 100 to 500 nM in test [2]; above 500 nM in test [3]; above 500 nM in test [4]; below 30 nM in test [5]; below 100 nM in test [6]. The IC50 in test [7] was 100 to 500 nM; in test [8], above 500 nM.
With `N#Cc1ccc2c(-c3nc(N[C@@H]4C[C@@H]5CC[C@H]4N5)ncc3C(F)(F)F)c[nH]c2c1` [Compound 115, 3-[2-[[(1R,2R,4S)-7-azabicyclo[2.2.1]heptan-3-yl]amino]-5-(trifluoromethyl)pyrimidin-4-yl]-1H-indole-6-carbonitrile], the IC50 is 100 to 500 nM in test [1]; 500 to 2000 nM in test [2]; above 500 nM in test [3]; above 500 nM in test [4]; 30 to 100 nM in test [5]; 100 to 500 nM in test [6]. Moreover, the IC50 in test [7] was 500 to 2000 nM; in test [8], above 500 nM.
Take `Cc1noc(C)c1-c1ccc2c(-c3nc(N[C@H]4CC[C@@H]4N)ncc3C(F)(F)F)c[nH]c2c1` [Compound 116, (1S,2S)—N2-[4-[6-(3,5-dimethylisoxazol-4-yl)-1H-indol-3-yl]-5-(trifluoromethyl)pyrimidin-2-yl]cyclobutane-1,2-diamine]: the IC50 was below 100 nM in test [1]; 100 to 500 nM in test [2]; above 500 nM in test [3]; above 500 nM in test [4]; below 30 nM in test [5]; 100 to 500 nM in test [6]. Besides, the IC50 in test [7] was 100 to 500 nM; in test [8], above 500 nM.
With `N[C@H]1CCC[C@@H]1Nc1ncc(C(F)(F)F)c(-c2c[nH]c3cc(-c4nccs4)ccc23)n1` [Compound 117, (1S,2S)—N1-[4-(6-thiazol-2-yl-1H-indol-3-yl)-5-(trifluoromethyl)pyrimidin-2-yl]-cyclopentane-1,2-diamine], the IC50 in test [1] was 100 to 500 nM; in test [2] it was above 2000 nM; in test [3] it was above 500 nM; in test [4] it was above 500 nM; in test [5], below 30 nM; in test [6] it was 100 to 500 nM. In addition, the IC50 in test [7] is 100 to 500 nM; in test [8], above 500 nM.
Take `Cc1noc(C)c1-c1ccc2c(-c3nc(N[C@H]4CCC[C@@H]4N)ncc3C(F)(F)F)c[nH]c2c1` [Compound 118]: the IC50 is below 100 nM in test [1]; below 100 nM in test [2]; above 500 nM in test [3]; above 500 nM in test [4]; below 30 nM in test [5]; below 100 nM in test [6]. The IC50 was 100 to 500 nM in test [7] and above 500 nM in test [8].
Consider `N#Cc1ccc2c(-c3nc(N[C@H]4Cc5ccccc5[C@@H]4N)ncc3C(F)(F)F)c[nH]c2c1` [Compound 119, 3-[2-[[(1S,2S)-1-aminoindan-2-yl]-amino]-5-(trifluoromethyl)pyrimidin-4-yl]-1H-indole-6-carbonitrile], for which the IC50 in test [1] is 100 to 500 nM; in test [2], above 2000 nM; in test [3], above 500 nM; in test [4], above 500 nM; in test [5], below 30 nM; in test [6] it was 100 to 500 nM. For the same compound, the results for the IC50 in test [7] and in test [8] were 100 to 500 nM and above 500 nM, respectively.
In the case of `CC(=O)N[C@H]1CCC[C@@H]1Nc1ncc(C(F)(F)F)c(-c2c[nH]c3cc(C#N)ccc23)n1` [Compound 120, N-[(1S,2S)-2-[[4-(6-cyano-1H-indol-3-yl)-5-(trifluoromethyl)pyrimidin-2-yl]-amino]cyclopentyl]-acetamide], the IC50 in test [1] is above 2000 nM; in test [2] it was above 2000 nM; in test [3], above 500 nM; in test [4] it was above 500 nM; in test [5] it was above 500 nM; in test [6] it was above 2000 nM. The IC50 is above 2000 nM in test [7] and above 500 nM in test [8].
In the case of `N#Cc1ccc2c(-c3nc(N[C@H]4CCC[C@@H]4N4CCOCC4)ncc3C(F)(F)F)c[nH]c2c1` [Compound 121], the IC50 in test [1] is above 2000 nM; in test [2], above 2000 nM; in test [3], above 500 nM; in test [4] it was above 500 nM; in test [5], 30 to 100 nM; in test [6], above 2000 nM. Moreover, the IC50 in test [7] was above 2000 nM; in test [8] it was above 500 nM.
With `N#Cc1ccc2c(-c3nc(N[C@H]4CCC[C@@H]4N4CCCC4)ncc3C(F)(F)F)c[nH]c2c1` [Compound 122], the IC50 is 100 to 500 nM in test [1]; 100 to 500 nM in test [2]; above 500 nM in test [3]; above 500 nM in test [4]; 30 to 100 nM in test [5]; 100 to 500 nM in test [6]. Moreover, the IC50 in test [7] is 100 to 500 nM; in test [8], above 500 nM.
For `COCCN[C@H]1CCC[C@@H]1Nc1ncc(C(F)(F)F)c(-c2c[nH]c3cc(C#N)ccc23)n1` [Compound 123, 3-[2-[[(1S,2S)-2-(2-methoxyethylamino)cyclopentyl]-amino]-5-(trifluoromethyl)pyrimidin-4-yl]-1H-indole-6-carbonitrile], the IC50 is 100 to 500 nM in test [1]; 100 to 500 nM in test [2]; above 500 nM in test [3]; above 500 nM in test [4]; below 30 nM in test [5]; 100 to 500 nM in test [6]. Also, the IC50 in test [7] is 100 to 500 nM; in test [8] it was above 500 nM.
Turning to `CN(C)[C@H]1CCC[C@@H]1Nc1ncc(C(F)(F)F)c(-c2c[nH]c3cc(C#N)ccc23)n1` [Compound 124], the IC50 in test [1] is 500 to 2000 nM; in test [2], above 2000 nM; in test [3] it was above 500 nM; in test [4], above 500 nM; in test [5], 100 to 500 nM; in test [6], 500 to 2000 nM. Also, the IC50 in test [7] was 500 to 2000 nM; in test [8], above 500 nM.
As for `CC(=O)N[C@H]1CC[C@@H]1Nc1ncc(C(F)(F)F)c(-c2c[nH]c3cc(C#N)ccc23)n1` [Compound 125, N-[(1S,2S)-2-[[4-(6-cyano-1H-indol-3-yl)-5-(trifluoromethyl)pyrimidin-2-yl]-amino]-cyclobutyl]-acetamide], the IC50 is 500 to 2000 nM in test [1]; above 2000 nM in test [2]; above 500 nM in test [3]; above 500 nM in test [4]; above 500 nM in test [5]; above 2000 nM in test [6]. The figures for the IC50 in test [7] and in test [8] were above 2000 nM and above 500 nM, respectively.
